From patent publication EP2873675A1, “Peptide-based peroxidase inhibitors and methods of using same” (The Medical College of Wisconsin, Inc., priority 2013, dated 2015)
Entries after “also recorded” stand apart in the source; their conditions may differ. Values belong to the compound of their own block, whether it stands above or below them. Positions of bridges follow the written chain, without caps; N, C: chain ends. Non-standard residues stand in square brackets, D forms with d. Residues, ends and D or L forms follow the SMILES beside them. Chains are numbered I, II in the order given.

What was measured:
MPO [1] = target: T1, MPO (Homo sapiens, UniProt P05164); test: MPO-mediated LDL oxidation (conjugated diene formation, absorbance at 234 nm); format: biochemical; conditions: 25 µM; for MPO/H2O2/nitrite-mediated LDL oxidation: H2O2 100 µM, NaNO2 100 µM, MPO 20 nM; for MPO/H2O2-mediated LDL oxidation: in the absence of nitrite
T1 construct: purchased Lee Biosolutions (St. Louis, MO)
T1 sequence (P05164 49-745): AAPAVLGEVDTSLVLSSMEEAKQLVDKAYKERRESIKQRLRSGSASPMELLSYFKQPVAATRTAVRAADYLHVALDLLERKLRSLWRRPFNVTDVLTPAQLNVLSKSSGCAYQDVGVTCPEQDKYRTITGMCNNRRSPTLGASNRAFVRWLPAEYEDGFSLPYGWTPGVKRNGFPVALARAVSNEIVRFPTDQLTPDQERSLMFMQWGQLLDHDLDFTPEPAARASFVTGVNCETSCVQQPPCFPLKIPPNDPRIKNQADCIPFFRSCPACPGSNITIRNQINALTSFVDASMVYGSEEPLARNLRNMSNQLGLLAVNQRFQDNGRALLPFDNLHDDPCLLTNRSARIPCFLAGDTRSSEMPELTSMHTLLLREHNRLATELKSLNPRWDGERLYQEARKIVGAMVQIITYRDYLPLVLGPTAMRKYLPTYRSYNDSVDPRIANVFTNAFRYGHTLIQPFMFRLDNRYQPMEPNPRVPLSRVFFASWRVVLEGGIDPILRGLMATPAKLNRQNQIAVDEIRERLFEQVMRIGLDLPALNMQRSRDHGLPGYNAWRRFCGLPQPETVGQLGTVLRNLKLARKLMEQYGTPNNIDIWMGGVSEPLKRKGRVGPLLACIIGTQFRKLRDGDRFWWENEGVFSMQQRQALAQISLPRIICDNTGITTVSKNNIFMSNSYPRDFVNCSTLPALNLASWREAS
Experimental: (§1) MPO-mediated oxidation of LDL. Reaction mixtures contained LDL (0.15 mg/ml), NaNO2 (100 µM), H2O2 (300 µM), MPO (20 nM) and various concentrations of KYC in a potassium phosphate buffer (100 mM, pH 7.4) containing DTPA (100 µM). LDL oxidation was monitored at 234 nm at room temperature on a HP UV/VIS spectrometer. Absorbance traces represent the average of duplicate experiments.
(§2) MPO-mediated LDL Oxidation. Reaction mixtures contained LDL (0.15 mg/mL), NaNO2 (100 µM), H2O2 (100 µM), MPO (20 nM) and increasing concentrations of KYC in a phosphate buffer (100 mM, pH 7.4) containing DTPA (100 µM). Rates of LDL oxidation were monitored at room temperature at 234 nm, the wavelength maximum for conjugated dienes.
(§3) MPO-mediated LDL Conjugated Diene Formation: Reaction mixtures contained LDL (0.15 mg/mL), NaNO2 (100 µM), H2O2 (100 µM), MPO (20 nM) and increasing concentrations of KYC or equimolar concentrations of various compounds in a phosphate buffer (100 mM, pH 7.4) containing DTPA (100 µM). Rates of LDL conjugated diene formation were determined by following changes in absorbance at 234 nm, the wavelength maximum for conjugated dienes, on a UV-Vis spectrophotometer (Agilent Model 8453) at room temperature.

MPO [2] = target: T1, MPO; test: MPO-catalyzed HOCl production (taurine/TMB assay); format: biochemical; conditions: 12.5 µM
Experimental: (§4) MPO-mediated HOCl Production. MPO (20 nM) was incubated with H2O2 (50 µM), NaCl (150 mM), taurine (5 mM) and increasing concentrations of KYC in phosphate buffer (100 mM, pH 7.4) which also contained diethylene triamine pentaacetic acid (DTPA, 100 µM) to prevent non-specific, divalent metal cation oxidation for 30 min. Reactions were halted by addition of catalase. Chlorotaurine was quantified using the 3,3-,5,5-tetramethylbenzidine (TMB) assay. Briefly, 400 µL of reaction solution was mixed with 100 µL of 2 mM TMB, 100 µM NaI containing 10% dimethylformamide (DMF) in 400 mM acetate buffer (pH 5.4). After 5 min, absorbance (650 nm) was recorded on a UV/Vis spectrophotometer (Agilent Model 8453).
(§5) MPO-catalyzed HOCl Production: MPO (20 nM) was incubated with H2O2 (50 µM), NaCl (150 mM), taurine (5 mM) and increasing concentrations of KYC in a phosphate buffer (100 mM, pH 7.4) containing diethylene triamine pentaacetic acid (DTPA, 100 µM) to prevent non-specific, divalent metal cation oxidation for 30 min. Reactions were halted by addition of catalase (2,000 units/mL). Chlorotaurine was quantified using the TMB assay (66). Briefly, 400 µL of reaction solution was mixed with 100 µL of 2 mM TMB, 100 µM NaI containing 10% dimethylformamide (DMF) in 400 mM acetate buffer (pH 5.4). After 5 min, absorbance (650 nm) was recorded on a UV/Vis spectrophotometer (Agilent Model 8453).

MPO [3] = test: MPO-mediated LDL oxidation (conjugated diene formation, absorbance at 234 nm); format: biochemical; conditions: 25 µM; H2O2 100 µM, NaNO2 100 µM, MPO 20 nM
Experimental: as §1, §2, §3

MPO [4] = test: MPO-catalyzed HOCl production (taurine/TMB assay); format: biochemical; conditions: for MPO-catalyzed HOCl production, dose-dependent effects: increasing concentrations
Experimental: as §4, §5

[5] = Thiol reduction of KYC disulfide (HPLC); format: physicochemical
Source text: To confirm that KYC oxidation by MPO yields a simple disulfide, we reduced the product using simple thiols such as glutathione (GSH) and dithiothreitol (DTT).

NADPH oxidase (NOX) = test: PMA-stimulated HL-60 cell superoxide formation (SOD-inhibitable cytochrome C reduction); format: cell-based, human; conditions: cytochrome C assay
Experimental: PMA-induced Superoxide Anion Formation. HL-60 cells were cultured in RPMI 1640 medium containing 10 % FCS (passage 20-50). HL-60 cells were harvested by centrifugation (1000 rpm, 10 min), washed 2X with phosphate buffer (10 mM, pH 7.4) with NaCl (138 mM), KCl (2.67 mM), CaCl2 (0.901 mM), MgCl2 (0.493 mM) and glucose (1mg/ml) to remove culture medium. The HL-60 cells (6 x10^6/0.5ml) were re-suspended in DPBS. After stimulation with PMA (10 µM), the HL-60 cells were incubated with cytochrome C (40 µM) with or without superoxide dismutase at 37°C for 30 min. The reaction was stopped by centrifugation. Cytochrome C reduction was measured at 550 nm on a UV-Vis spectrophotometer (Agilent, Model 8453).
PMA-stimulated HL-60 cell O2^•- Formation: HL-60 cells were harvested by centrifugation (1000 rpm, 10 min), washed twice with DPBS with glucose to remove culture medium. The HL-60 cells (1.2 x10^7/ml) were re-suspended in DPBS with glucose. After stimulation with PMA (10 µM), the HL-60 cells were incubated with cytochrome C (40 µM) with or without superoxide dismutase (500 units/mL) at 37 °C for 10 min and then the HL-60 cells were removed by centrifugation. Cytochrome C reduction in supernatants was measured at 550 nm using a UV-Vis spectrophotometer (Agilent, Model 8453).

hypertensive rats = conditions: large doses; cited from earlier work
SS/Mcw rat hearts = test: Ischemia/reperfusion injury in isolated perfused hearts (Langendorff)
Source text: Ischemia/Reperfusion (I/R) Injury in Isolated Hearts. Rats used in this study received humane care in compliance with the Guide for the Care and Use of Laboratory Animals, by the National Research Council. Rats were maintained on a low salt (0.4% NaCl) diet with unlimited access to water. Environmental influences were minimized by maintaining rats in identical housing conditions. Dahl S (SS/Mcw male rats at 8 weeks of age were used for this study.
Modified Krebs-Henseleit bicarbonate buffer was prepared containing the following components (in mM): 118.5 NaCl, 25.0 NaHCO3, 4.8 KCl, 1.2 MgSO4·6H2O, and 1.2 KH2PO4 (pH 7.4 when gassed with 95% O2-5% CO2) in which the calcium content was 1.8. Glucose (11.1 mM) was added to the perfusate. Before use, all perfusion fluids were filtered through cellulose acetate membranes with a pore size of 5 µm. To this perfusate, drugs (KAA, KYC) were added as needed. Animals were weighed, and heparin was administered intraperitoneally based on weight (150 IU/kg). Anesthesia was induced with pentobarbital sodium (30 mg/kg ip). Once adequate anesthesia was obtained, the abdomen was opened, and the diaphragm was separated from its chest wall attachments and the pericardium opened. The aorta was clamped and the heart excised. The heart was then immediately transferred to the Langendorff apparatus, and the aorta was cannulated and secured using silk ties. Coronary arteries were perfused at constant pressure (80 mmHg) in a retrograde fashion with Krebs buffer. The heart was immersed in a bath containing Krebs buffer at 37.2 +/- 0.1°C to maintain conditions of normothermia. Left ventricular pressure (LVP) was measured isovolumetrically with a transducer connected to a thin, saline-filled latex balloon inserted into the left ventricle through the mitral valve from an incision in the left atrium.
Drug perfusion. After steady-state levels of function were reached, hearts were perfused with HZ2 (Ac-KYC-NH2) or HZ3 (Ac-KWC-NH2) at 50mg/L for 40 min prior to 35 min global ischemia and 2 hour reperfusion. The protocol for perfusing isolated hearts with or without KWC or scramble peptide KAA is described in Fig. 5A.

Compound: N[C@@H](Cc1ccc(O)cc1)C(=O)O [Tyr, tyrosine]
MPO/H2O2/nitrite-mediated LDL oxidation (MPO [1]): accelerated and enhanced LDL oxidation
MPO/H2O2-mediated LDL oxidation (MPO [1]): increased MPO-mediated LDL oxidation
MPO-catalyzed HOCl production, comparison at equimolar concentration (MPO [2]): little, if any effect
MPO-catalyzed HOCl production, comparison at equimolar concentration (MPO [2]; listed as Tyrosine): little if any effect

Compound: N-acetyl Lysylphenylalanylcysteine amid [KFC]
MPO/H2O2/nitrite-mediated LDL oxidation (MPO [3]): increased the lag phase and delayed, but did not totally inhibit LDL oxidation
reduction of HOCl detected by the taurine/TMB assay (MPO [4]; 25 µM): 35%
MPO-catalyzed HOCl production, dose-dependent effects (MPO [4]): weaker inhibitor of HOCl formation

Compound: N-acetyl Lysyltyrosylcyeteine amide [KYS]
MPO/H2O2/nitrite-mediated LDL oxidation (MPO [3]): accelerated LDL oxidation
MPO-catalyzed HOCl production, dose-dependent effects (MPO [4]): failed to inhibit; also recorded: not an inhibitor

Compound: CC(=O)N[C@H](CCCCN)C(=O)N[C@H](Cc1ccc(O)cc1)C(=O)N[C@H](CS)C(N)=O [Ac-(d)K(d)Y(d)C-amide] (Ac-[dK]-[dY]-[dC]-NH2)
MPO-catalyzed HOCl production, comparison at equimolar concentration (MPO [4]; 12.5 µM): less effective than KYC

reduction to KYC monomer by GSH ([5]; 10 mM GSH, 120 min): completely reduced
time to complete reduction to KYC monomer by DTT ([5]; DTT 0.5 mM, room temperature): ≤ 5 min
Compound: CC(=O)N[C@@H](CCCCN)C(=O)N[C@@H](Cc1ccc(O)cc1)C(=O)N[C@@H](CSSC[C@H](NC(=O)[C@H](Cc1ccc(O)cc1)NC(=O)[C@H](CCCCN)NC(C)=O)C(N)=O)C(N)=O [KYC disulfide] (I: Ac-Lys-Tyr-Cys-NH2 / II: Ac-Lys-Tyr-Cys-NH2; disulfide I:3-II:3)
O2•- production in PMA-stimulated HL-60 cells (NADPH oxidase (NOX)): neither KYC nor KYC disulfide have any significant effect; also recorded: Neither KYC nor KYC disulfide had any significant effect

Compound: N[C@@H](CCC(=O)N[C@@H](CS)C(=O)NCC(=O)O)C(=O)O [GSH, glutathione]
MPO/H2O2/nitrite-mediated LDL oxidation (MPO [1]): ineffective for inhibiting LDL oxidation
MPO/H2O2-mediated LDL oxidation (MPO [1]): inhibited LDL oxidation; also recorded: did not increase LDL oxidation

Compound: COc1ccc2[nH]cc(CCNC(C)=O)c2c1 [melatonin]
number of apoptotic cells in the vessel wall (hypertensive rats): increased the number of apoptotic cells in the vessel wall

Compound: CC(=O)N[C@@H](CCCCN)C(=O)N[C@@H](Cc1c[nH]c2ccccc12)C(=O)N[C@@H](CS)C(N)=O [KWC, Ac-KWC-amide] (Ac-Lys-Trp-Cys-NH2)
percent recovery of LVDP after I/R injury (SS/Mcw rat hearts; perfusion 40 min prior to 35 min global ischemia and 2 hour reperfusion, untreated 37.1±4.3): 55.3±4.1%
left ventricular developed pressure (LVDP) after I/R injury (SS/Mcw rat hearts; perfusion 40 min prior to 35 min global ischemia and 2 hour reperfusion, untreated 38±3.9): 57.3±4.8 mmHg
increase of coronary flow rates after perfusion into the hearts (SS/Mcw rat hearts; prior to ischemia): more than 20%
percent recovery of coronary flow rates after I/R (SS/Mcw rat hearts; untreated control 49.6±3.4, p<0.05): 65.2±4%

MPO/H2O2-mediated LDL oxidation (MPO [1]): increased MPO-mediated LDL oxidation
MPO-catalyzed HOCl production, comparison at equimolar concentration (MPO [2]): effective inhibitor
Compound: N[C@@H](Cc1c[nH]c2ccccc12)C(=O)O [Trp, tryptophan]
MPO/H2O2/nitrite-mediated LDL oxidation (MPO [1]): did not inhibit but actually enhanced LDL oxidation
